Test systems include A498 renal; HCC-2998 colon; HS 578T breast; K-562 leukemia; OVCAR-3 ovarian; OVCAR-8 ovarian; RXF 393 renal; SK-MEL-2 melanoma; SNB-75 CNS; TK-10 renal.
Experiment in all cases: DTP human tumour cell line panel, 48 h

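Five concentrations, 48 hours, 96-well plates. GI50 is the concentration that inhibits growth by half. The concentration for full growth arrest is given as TGI.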

One may read the TGI as the concentration at which net growth stops. Read a low TGI as more potent growth arrest. The GI50 is the concentration at which growth is held to half of that of the control.

With `CC1=Cc2ccc(C)cc2C(=O)C1=O`, the TGI in the test with A498 renal was 51.6 µM; in the test with HCC-2998 colon, 30.8 µM; with HS 578T breast it was more than 65.1 µM; in the test on K-562 leukemia it was more than 23.9 µM; in the test with OVCAR-3 ovarian, 49.4 µM; in the test with OVCAR-8 ovarian it was more than 73.8 µM. The TGI was found to be 3.27 µM in the test with RXF 393 renal, 52.9 µM with SK-MEL-2 melanoma, 21.8 µM in the test on SNB-75 CNS and 3.68 µM with TK-10 renal.

Turning to `Cc1nc(Nc2cccnc2)sc1C(=O)/C=C/c1ccc(Cl)cc1`, the GI50 with A498 renal was 49.5 µM; in the test on HCC-2998 colon it was 3.06 µM; in the test with HS 578T breast, 4.11 µM; in the test on K-562 leukemia it was 2.62 µM; in the test on OVCAR-3 ovarian, 3.27 µM; in the test on OVCAR-8 ovarian, 3.84 µM. Further, the GI50 was 2.43 µM in the test with RXF 393 renal, 3.97 µM in the test with SK-MEL-2 melanoma, 2.82 µM with SNB-75 CNS and 3.53 µM with TK-10 renal. The concentration for total growth inhibition (TGI) in the test on A498 renal is more than 100 µM; with HCC-2998 colon it was 10.5 µM; in the test on HS 578T breast it was more than 100 µM; in the test on K-562 leukemia it was more than 100 µM; in the test on OVCAR-3 ovarian, 16.2 µM; in the test on OVCAR-8 ovarian it was more than 100 µM. The total growth inhibition concentration (TGI) in the test on RXF 393 renal was determined as 5.46 µM; with SK-MEL-2 melanoma, 18.3 µM; in the test with SNB-75 CNS, 14.7 µM; with TK-10 renal, 12.1 µM.

Take `CCN(c1cc(-c2ccc(CN3CCOCC3)cc2)cc(C(=O)NCc2c(C)cc(C)[nH]c2=O)c1C)C1CCOCC1`: the GI50 in the test with A498 renal was 9.79 µM; in the test on HCC-2998 colon it was 20.4 µM; with HS 578T breast it was 22.2 µM; in the test on K-562 leukemia it was 32.6 µM; in the test with OVCAR-3 ovarian, 25 µM; in the test with OVCAR-8 ovarian, 37.9 µM. Further, the GI50 in the test on RXF 393 renal is 16.5 µM; in the test on SK-MEL-2 melanoma it was 16.6 µM; with SNB-75 CNS it was 16.7 µM; in the test with TK-10 renal, 25.2 µM. Moreover, the TGI in the test on A498 renal was 37.2 µM; with HCC-2998 colon, 49.7 µM; with HS 578T breast, more than 71.2 µM; with K-562 leukemia, more than 100 µM; in the test with OVCAR-3 ovarian, more than 54.6 µM; in the test with OVCAR-8 ovarian it was more than 100 µM. The TGI is 44.7 µM with RXF 393 renal, 35.8 µM with SK-MEL-2 melanoma, more than 91.9 µM with SNB-75 CNS and more than 73.6 µM in the test on TK-10 renal.

On to `O=c1[nH]c2nc(NC3CCOCC3)ncc2cc1Oc1ccc(F)cc1F`, for which the GI50 with A498 renal, in the test on HCC-2998 colon, in the test on HS 578T breast, with K-562 leukemia, in the test on OVCAR-3 ovarian and in the test on OVCAR-8 ovarian was more than 25 µM throughout. Moreover, the GI50 with RXF 393 renal was more than 25 µM; in the test on SK-MEL-2 melanoma, more than 25 µM; with SNB-75 CNS, more than 8.27 µM; in the test with TK-10 renal it was more than 25 µM. For the same compound, the concentration for total growth inhibition (TGI) in the test on A498 renal, in the test on HCC-2998 colon, with HS 578T breast, with K-562 leukemia, in the test on OVCAR-3 ovarian and in the test on OVCAR-8 ovarian was more than 25 µM throughout. The TGI in the test on RXF 393 renal, in the test with SK-MEL-2 melanoma, with SNB-75 CNS and in the test on TK-10 renal was more than 25 µM in each case.

With `O=C(Nc1ccc(-c2nc(-c3cccc(OCCN4CCOCC4)c3)c(-c3ccnc(Br)c3)[nH]2)cc1)c1ccccc1`, the GI50 was 1.49 µM in the test on A498 renal; 2.76 µM in the test with HCC-2998 colon; 0.267 µM in the test on HS 578T breast; 4.27 µM with OVCAR-3 ovarian; 3.96 µM with OVCAR-8 ovarian; 0.309 µM in the test on RXF 393 renal. The GI50 in the test on SK-MEL-2 melanoma was 2.75 µM; with SNB-75 CNS it was 0.364 µM; in the test with TK-10 renal it was 4.48 µM. Further, the concentration for total growth inhibition (TGI) is 3.96 µM in the test on A498 renal; more than 100 µM in the test on HCC-2998 colon; 0.885 µM with HS 578T breast; more than 100 µM with OVCAR-3 ovarian; more than 100 µM in the test with OVCAR-8 ovarian; 1.12 µM in the test with RXF 393 renal. Also, the TGI in the test with SK-MEL-2 melanoma was more than 100 µM; with SNB-75 CNS, 2.76 µM; in the test with TK-10 renal, more than 100 µM.

Take `C1CC2CN(CCCN3CCOCC3)C(C1)O2` (configuration not stated): the concentration for total growth inhibition (TGI) in the test on A498 renal, in the test with HS 578T breast, in the test on K-562 leukemia, in the test on OVCAR-3 ovarian, in the test on OVCAR-8 ovarian and in the test with RXF 393 renal was more than 100 µM in each case. Also, the concentration for total growth inhibition (TGI) in the test on SK-MEL-2 melanoma, in the test on SNB-75 CNS and in the test with TK-10 renal was more than 100 µM in each case.

For the compound `c1ccc(CN2CCC(Nc3ccccc3)(c3nnnn3Cc3ccccc3)CC2)cc1`, the TGI in the test with A498 renal is 63.8 µM; with HCC-2998 colon, 10.5 µM; in the test on HS 578T breast it was more than 100 µM; in the test on OVCAR-8 ovarian, more than 100 µM; with RXF 393 renal it was 73.8 µM; in the test on SNB-75 CNS, 92.6 µM. This compound also had a TGI in the test on TK-10 renal of more than 100 µM.

For the compound `C1CC[N-]CC1.CC(=N\O)/C(C)=N/O.CC(=N\O)/C(C)=N/O.OC1[CH-]CCCC1.[Co+2]`, the GI50 was more than 100 µM in the test with A498 renal; 22.8 µM with HS 578T breast; 33.4 µM in the test on K-562 leukemia; 52 µM with OVCAR-3 ovarian; 28.9 µM in the test on OVCAR-8 ovarian; 19.2 µM in the test with RXF 393 renal. Also, the GI50 in the test with SK-MEL-2 melanoma is 23.9 µM; with SNB-75 CNS it was 26.9 µM; in the test with TK-10 renal, 39.8 µM. In addition, the TGI is more than 100 µM in the test on A498 renal; 63 µM with HS 578T breast; more than 100 µM in the test with K-562 leukemia; more than 100 µM with OVCAR-3 ovarian; more than 100 µM in the test with OVCAR-8 ovarian; 62.4 µM in the test on RXF 393 renal. The values for the TGI with SK-MEL-2 melanoma, in the test with SNB-75 CNS and in the test on TK-10 renal were 59.7 µM, more than 100 µM and more than 100 µM, respectively.

For the compound `CCOc1c(N=Nc2ccccc2Cl)c(-c2ccccc2)nn1C(=S)S`, the TGI in the test on HS 578T breast was 75.4 µM; in the test with K-562 leukemia, more than 100 µM; in the test on OVCAR-3 ovarian, 90.1 µM; in the test on OVCAR-8 ovarian, more than 100 µM; in the test on RXF 393 renal, more than 100 µM; in the test on SK-MEL-2 melanoma, more than 100 µM. Also, the concentration for total growth inhibition (TGI) with SNB-75 CNS and in the test with TK-10 renal was more than 100 µM in each case.

Consider `CN(C)c1nc2ccccc2c2c1c1c(n2Cc2ccccc2)-c2ccccc2C1=O`, for which the GI50 in the test with A498 renal, in the test on K-562 leukemia, in the test on OVCAR-3 ovarian, in the test with OVCAR-8 ovarian, in the test on RXF 393 renal and in the test on SK-MEL-2 melanoma was more than 100 µM in each case. Also, the GI50 in the test with SNB-75 CNS was 54.2 µM; in the test with TK-10 renal it was more than 100 µM. Further, the TGI in the test with A498 renal was more than 100 µM; in the test with HS 578T breast, 75.9 µM; in the test with K-562 leukemia, more than 100 µM; in the test on OVCAR-3 ovarian, more than 100 µM; with OVCAR-8 ovarian, more than 100 µM; in the test on RXF 393 renal, more than 100 µM. The total growth inhibition concentration (TGI) with SK-MEL-2 melanoma, in the test with SNB-75 CNS and in the test on TK-10 renal was more than 100 µM in each case.

(Values after PubChem BioAssay (NCI).)
